In a melting point compilation (Tetko et al.):

| SMILES | melting point |
| --- | --- |
| CC(C)(C)OC(=O)N1CC(O)C1 | 40 °C |
| c1cncc(-c2nc3ccccc3[nH]2)c1 | 257 °C |
| CN1CCc2c(sc(N)c2C#N)C1 | 192 to 194 °C |
| O=S(=O)(Nc1c(F)c(F)cc(F)c1F)C(F)(F)F | 95 °C |
| O=C1Cc2ccc3ccccc3c21 | 97 °C |
| CC(=O)c1csc(-c2ccccc2)n1 | 84 °C |
| CC(C=CC1=C(C)CCCC1(C)C)=CC=CC(C)=CC(=O)O | 185 °C |
| Clc1ccc(Br)s1 | -20 °C |
| CC(C)(C)Oc1ccccc1 | -24 °C |
| CCOc1cccc(C=O)c1O | 67 °C |
| O=P(O)(O)Cc1ccccc1 | 169 °C |
| CCC1NC(=O)c2cc(S(N)(=O)=O)c(Cl)cc2N1 (configuration not stated) | 251 °C |
| O=C(O)c1ccccc1-c1ccco1 | 87 °C |
| O=C(CNc1ccccc1)c1ccc(C(=O)CNc2ccccc2)cc1 | > 200 °C |
| Cc1c(Cc2c(C)n(C)n(-c3ccccc3)c2=O)c(=O)n(-c2ccccc2)n1C | 155 °C |
| O=C(O)c1ccccc1CS(=O)c1ccccc1 (configuration not stated) | 185 to 187 °C |
| COC(=O)c1cccc(C(=O)O)c1 | 166 °C |
| CN(C)c1ccc(C=C2C3=C(CCCC3)OC3=C2CCCC3)cc1 | 164 °C |
| C=C1C(C)CCC2(C)C3=C(C(=O)C4(CC4C)C(O)C3=O)C(O)C(O)C12 (configuration not stated) | 194 °C |
| CN1CCC23c4c5ccc(O)c4OC2C(O)CCC3C1C5 (configuration not stated) | 157 °C |
| O=C(O)CCC1CCCCCCCCCCC1=O (configuration not stated) | 88 to 90 °C |
| FC(F)(F)c1cc(Cl)ccc1I | 29 to 31 °C |
| Cc1nc(/C(C#N)=N/Nc2ccc(Cl)cc2)sc1/N=N/c1ccccc1 | 225 °C |
| NC(=S)c1ccsc1 | 96 to 98 °C |
| CC(=O)C(=O)c1cc(C(=O)C(C)=O)c([N+](=O)[O-])cc1[N+](=O)[O-] | 119 °C |
| c1ccc(Cc2nc3ccccc3nc2Cc2ccccc2)cc1 | 118 °C |

| SMILES | melting point |
| --- | --- |
| Cc1ccc2cc3c(ccc4ccccc43)cc2c1 | 152 °C |
| O=c1c(O)c(O)c1=O | 293 °C |
| CN(N)c1ccc(C(F)(F)F)cc1[N+](=O)[O-] | 68 to 70 °C |
| CCCCCC(O)CCCCC | 25 °C |
| Cc1c(C)c(C)c(C(=O)c2ccccc2C(=O)O)c(C)c1C | 278 to 282 °C |
| COc1cc(OC)nc(NC(=O)NS(=O)(=O)c2cc(NC=O)ccc2C(=O)N(C)C)n1 | 194 °C |
| C=CCC1(CC(C)O)C(=O)NC(=O)NC1=O (configuration not stated) | 158 °C |
| CCCCCCCOc1ccc(C(=O)O)cc1 | 146 °C |
| Cc1ncc(C(=O)O)c(-c2ccccc2)n1 | 210 to 211 °C |
| O=C(Nc1ccc(Br)cc1)c1cc(Br)cc(Br)c1O | 227 °C |
| OCc1ccncn1 | 77 °C |
| COc1cccc2c(=O)c3c(n(C)c12)OC(C(C)C)C3 (configuration not stated) | 119 °C |
| CCOC(=O)C(=Cc1cc(N)cc(C=C(C(=O)OCC)C(=O)OCC)c1)C(=O)OCC | 174 °C |
| O=C(COc1ccc(Cl)cc1)n1c(=O)sc2ccccc21 | 143 °C |
| CCOc1ccccc1C(C)=O | 40 °C |
| NC(=O)c1ccccn1 | 106 °C |
| CCCN(CCC)CCc1cccc2c1CC(=O)N2 | 246 °C |
| NC(=O)C(Br)(Br)C(N)=O | 205 °C |
| O=CC1=C(Cl)c2cc(F)ccc2OC1 | 84 to 86 °C |
| O=C1Cc2ccccc2O1 | 50 °C |
| COC(=O)c1ccc(C)c(C)c1 | 36 to 38 °C |
| COCc1ccc(O)c([N+](=O)[O-])c1 | 123 °C |
| O=C(Cl)c1cccc(F)c1 | -30 °C |
| O=C(Nc1nc2ccccc2s1)C(C(F)(F)F)C(F)(F)F | 174 °C |
| Fc1cccc2cc[nH]c12 | 62 °C |
| COc1cc(C(c2c(O)cc(C)oc2=O)c2c(O)cc(C)oc2=O)ccc1O | 205 to 208 °C |

| SMILES | melting point |
| --- | --- |
| O=C(O)C=CC(=O)Nc1ccc(Cl)cc1Cl | 178 °C |
| CSC(=Nc1ccccc1)C(C#N)=C(N)SC | 177 °C |
| CC(C(=O)O)c1ccc(Cl)cc1 (configuration not stated) | 57 °C |
| O=C(O)C(F)(F)C(F)(F)C(F)(F)C(F)(F)C(F)(F)C(F)F | 34 °C |
| O=Cc1ccc(SCc2ccco2)c([N+](=O)[O-])c1 | 153 to 154 °C |
| Cc1cc(Cn2nc(C)cc2C)c(O)c(Cn2nc(C)cc2C)c1 | 125 °C |
| Cc1cc(C)n(CN(CCO)Cn2nc(C)cc2C)n1 | 82 to 84 °C |
| O=C(Oc1ccccc1C(=O)O)c1ccccc1O | 147 °C |
| Cc1ccc(COc2ccc(CC#N)cc2)cc1 | 121 to 123 °C |
| NC(=O)c1cccc2c1OCCO2 | 130 to 132 °C |
| CCOC(=O)C(N)=O | 112 to 115 °C |
| CC1(C)CC(=O)c2cc(-c3ccccc3)n(CCc3ccccc3)c2C1 | 113 to 115 °C |
| CCCCCCCCCCCCCCCCCCCCC(=O)O | 74 to 76 °C |
| C#CC(C)(C)NC(=O)c1cc(Cl)cc(Cl)c1 | 156 °C |
| O=C(CCl)C(Cl)(Cl)Cl | 65 °C |
| C=CCNC(SC)=C(C#N)C#N | 91 °C |
| CC(C)(C)OC(=O)NC(COC1CCCCO1)CS(=O)(=O)c1ccccc1 (configuration not stated) | 100 to 104 °C |
| Cc1cc(C)n2nc(SCc3ccccc3)nc2n1 | 135 to 136 °C |
| Brc1cccc(-c2cnco2)c1 | 59 to 61 °C |
| S=C1NC2=C(CCCC2=Cc2ccccc2)C(c2ccccc2)N1 (configuration not stated) | 190 to 192 °C |
| O=[N+]([O-])c1ccc2ccc3cccc4ccc1c2c34 | 155 °C |
| O=C(Cl)c1cc2cc(Br)ccc2s1 | 99 to 102 °C |
| O=[N+]([O-])c1cccc(-c2nnc3n2NC(c2ccco2)S3)c1 (configuration not stated) | 190 °C |
| O=[N+]([O-])c1cc([N+](=O)[O-])c(/C(Cl)=C\c2ccccc2)cc1C(Cl)=Cc1ccccc1 | 146 °C |
| Cn1ccc(-c2cccc(C(=O)O)c2)n1 | 167 to 169 °C |
| c1ccc(CC(c2ccccc2)c2ccccc2)cc1 | 52 °C |

| SMILES | melting point |
| --- | --- |
| O=C1NC(=O)C(=Cc2ccc(-c3ccccc3Br)o2)C(=O)N1 | 255 °C |
| Cc1c(Cl)c(=O)oc2cc(OP(=O)(OCCCl)OCCCl)ccc12 | 91 °C |
| COC(=O)c1sc(SC)c(C#N)c1N | 207 °C |
| CCOC(=O)c1cc2c(s1)Sc1[nH]c(C(=O)OCC)c(N)c1C2c1ccccc1 (configuration not stated) | 133 °C |
| Nc1ccc2c(n1)[nH]c1ccccc12 | 202 °C |
| Cc1ccc2[nH]ccc2c1 | 60 °C |
| COc1ccc(C2(C)CCc3oc4ccc(C)cc4c3-c3oc(C)cc32)cc1 (configuration not stated) | 170 °C |
| CN(C)C(=O)OC1N=C(c2ccccc2)c2cc(Cl)ccc2N(C)C1=O (configuration not stated) | 174 °C |
| Oc1ccc(Br)c(Cl)c1 | 66 °C |
| CCCCCOC(C)=O | -70.8 °C |
| Cc1nc(-c2cccc(S(=O)(=O)Cl)c2)no1 | 67 to 69 °C |
| CC12CC(c3ccccc3)C([N+](=O)[O-])C(O1)c1ccccc1N2 (configuration not stated) | 193 to 194 °C |
| CC1(c2ccccc2)CC(C(=NO)c2cc3ccccc3o2)C1 (configuration not stated) | 200 to 201 °C |
| CCOC1C(=O)NC2=C(C1=O)C(c1ccc(Br)cc1)c1c(c3ccccc3oc1=O)O2 (configuration not stated) | 196 °C |
| O=C(OCCCl)OCCCl | 8 °C |
| CCOc1cc(C(C)(C)C)ccc1C1COC(c2c(F)cccc2F)=N1 (configuration not stated) | 102 °C |
| COc1c(C(C)C)oc2cc3oc(=O)ccc3cc12 | 85 °C |
| CN(N)c1cnn(C)c(=O)c1Cl | 131 to 133 °C |
| Nn1c(S)nnc1-c1ccc(Cl)cc1 | 320 °C |
| O=C(O)C(=O)CBr | 79 to 82 °C |
| O=C(O)c1ccc(OCc2ccccc2)cc1 | 189 °C |
| CC(CCCO)C1CCC2C3CCC4CCCCC4(C)C3CCC12C (configuration not stated) | 130 °C |
| O=C(CCl)c1ccc(C(=O)CCl)cc1 | 153 °C |
| Cc1cc(NC(=O)C=CC(=O)O)no1 | 165 to 172 °C |
| COc1ccc2c(c1)CC2O (configuration not stated) | 39 to 41 °C |
| CN(C(=O)OC(C)(C)C)C(C)(C)C(=O)O | 153 to 157 °C |

| SMILES | melting point |
| --- | --- |
| C=CCSc1sc(C(=O)OCC)c2c1C(=O)CCC2 | 57 to 60 °C |
| Cc1nc(-c2ccc(CO)s2)cs1 | 67 to 69 °C |
| COc1cc(CCN(Cc2cccc(O)c2)C(=O)C(F)(F)F)ccc1O | 51 °C |
| CCCCCCO | -44.6 °C |
| CCC(=O)C=Cc1ccccc1 | 38.5 °C |
| Cc1cccc2c1[nH]c(=O)c1cc(NC(=O)c3ccccc3)c(=O)oc12 | > 300 °C |
| CC1(C)OC(=O)C(=NNc2cccc([N+](=O)[O-])c2)C(=O)O1 | 192 °C |
| Clc1noc2ccccc12 | 31 °C |
| Nc1ccc2cc(C(=O)O)ccc2c1 | 222 to 227 °C |
| Cc1ccc(Cl)c(C(=O)O)c1 | 148 to 150 °C |
| CCCCCCC(C)OC(=O)COc1nc(F)c(Cl)c(N)c1Cl (configuration not stated) | 59 °C |
| COc1ccccc1N1CCN(CCCNc2cc(=O)n(C)c(=O)n2C)CC1 | 156 °C |
| O=C(O)c1ccc(-c2ccc(Cl)cc2)o1 | 198 to 201 °C |
| Cc1ccccc1Oc1cccnn1 | 78 °C |
| O=[N+]([O-])Nc1ccccc1 | 47.3 °C |
| O=C(Cl)C=Cc1ccccc1 | 36 °C |
| O=C(O)CC1CCCCC1 | 33 °C |
| O=[N+]([O-])c1cc(O)c(Cl)cc1Cl | 100 °C |
| O=C(C1=NOC2C(=O)N(c3ccccc3[N+](=O)[O-])C(=O)C12)c1ccco1 (configuration not stated) | 209 °C |
| CCOC(=O)/C(C#N)=C(/c1ccc([N+](=O)[O-])cc1)C(C(=O)OCC)C(=O)OCC | 110 °C |
| O=C(Cl)c1ccc(-c2ccco2)s1 | 83 °C |
| Oc1cc(F)ccc1F | 38 °C |
| CC=Cc1cc2c(c(=O)o1)C(=O)C(O)C(C)O2 (configuration not stated) | 222 °C |
